Source: ChEMBL document CHEMBL1201862, “PubChem BioAssay data set” (2004)
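96-well plates; 48 h exposure; 5 concentrations. Endpoints by linear interpolation between flanking doses. Not reached: highest tested concentration assigned. Abbreviation: GI50, concentration required for 50% inhibition of growth.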 The source made the active and inactive calls. No stated cut-off is given here; in the data, active = GI50 up to about 1.1 µM and inactive = higher.

Tests used:
Test in all cases: inhibition of tumour cell growth, NCI panel, 48 h
OVCAR-5 = test system: OVCAR-5
A549 = test system: A549
RPMI-8226 = test system: RPMI-8226
NCI-H226 = test system: NCI-H226
NCI-H522 = test system: NCI-H522
CCRF-CEM = test system: CCRF-CEM
NCI-H23 = test system: NCI-H23
SNB-19 = test system: SNB-19
RXF 393 = test system: RXF 393
HOP-62 = test system: HOP-62
HCT-15 = test system: HCT-15
SF-268 = test system: SF-268
DU-145 = test system: DU-145
TK-10 = test system: TK-10
UACC-257 = test system: UACC-257
SF-295 = test system: SF-295
MDA-N = test system: MDA-N

SMILES	GI50 (OVCAR-5)	GI50 (A549)	GI50 (RPMI-8226)	GI50 (NCI-H226)	GI50 (NCI-H522)	GI50 (CCRF-CEM)	GI50 (NCI-H23)	GI50 (SNB-19)	GI50 (RXF 393)	GI50 (HOP-62)	GI50 (HCT-15) [µM]	GI50 (SF-268)	GI50 (DU-145)	GI50 (TK-10)	GI50 (UACC-257)	GI50 (SF-295)	GI50 (MDA-N)
O=C1OC(C(O)C(O)C(O)CO)C(O)C1O (stereo unspecified)	> 100 µM (inactive)	> 100 µM (inactive)	> 100 µM (inactive)	> 100 µM (inactive)	> 100 µM (inactive)	> 100 µM (inactive)	> 100 µM (inactive)	> 100 µM (inactive)	> 100 µM (inactive)	> 100 µM (inactive)	> 100	> 100 µM (inactive)	> 100 µM (inactive)	> 100 µM (inactive)	> 100 µM (inactive)	> 100 µM (inactive)	–
O=C(O)c1ccc([N+](=O)[O-])c(P(=O)(O)O)c1	> 100 µM (inactive)	> 100 µM (inactive)	> 100 µM (inactive)	> 100 µM (inactive)	–	–	> 100 µM (inactive)	> 100 µM (inactive)	> 100 µM (inactive)	> 100 µM (inactive)	> 100	–	> 100 µM (inactive)	> 100 µM (inactive)	> 100 µM (inactive)	> 100 µM (inactive)	> 100 µM (inactive)
O=c1[nH]c(N/N=C\C(O)C(O)C(O)CO)nc2ccccc12 (stereo unspecified)	> 100 µM (inactive)	> 100 µM (inactive)	> 100 µM (inactive)	> 100 µM (inactive)	–	> 100 µM (inactive)	> 100 µM (inactive)	> 100 µM (inactive)	–	> 100 µM (inactive)	> 100	> 100 µM (inactive)	> 100 µM (inactive)	> 100 µM (inactive)	> 100 µM (inactive)	> 100 µM (inactive)	> 100 µM (inactive)
C=CCOCn1cnc2c(N)ncnc21	> 100 µM (inactive)	> 100 µM (inactive)	> 100 µM (inactive)	> 100 µM (inactive)	–	> 100 µM (inactive)	> 100 µM (inactive)	> 100 µM (inactive)	–	> 100 µM (inactive)	> 100	> 100 µM (inactive)	> 100 µM (inactive)	> 100 µM (inactive)	> 100 µM (inactive)	> 100 µM (inactive)	> 100 µM (inactive)
COc1cc2c(cc1OC)-c1c(oc3cc(OC4OC(CO)C(O)C(O)C4O)c(OC)cc3c1=O)C(O)O2 (stereo unspecified)	> 100 µM (inactive)	> 100 µM (inactive)	> 100 µM (inactive)	> 100 µM (inactive)	> 100 µM (inactive)	> 100 µM (inactive)	> 100 µM (inactive)	> 100 µM (inactive)	> 100 µM (inactive)	> 100 µM (inactive)	> 100	> 100 µM (inactive)	> 100 µM (inactive)	> 100 µM (inactive)	> 100 µM (inactive)	> 100 µM (inactive)	–
O=C1/C(=C/c2cccs2)NC(=S)N1CN1CCCCC1	> 100 µM (inactive)	> 100 µM (inactive)	28.9 µM (inactive)	78.2 µM (inactive)	71 µM (inactive)	60.5 µM (inactive)	> 100 µM (inactive)	29.7 µM (inactive)	–	> 100 µM (inactive)	29.9	> 100 µM (inactive)	42.5 µM (inactive)	> 100 µM (inactive)	–	> 100 µM (inactive)	> 100 µM (inactive)
C[C@]12CC[C@H](O)CC1=CC[C@@H]1C2CC[C@]2(C)c3nn(-c4ccc(F)cc4)nc3CC12 (stereo partly specified)	67.1 µM (inactive)	79.4 µM (inactive)	–	44.2 µM (inactive)	58.3 µM (inactive)	58.1 µM (inactive)	63.4 µM (inactive)	73.3 µM (inactive)	61.5 µM (inactive)	80.7 µM (inactive)	–	73.8 µM (inactive)	88.3 µM (inactive)	> 100 µM (inactive)	46.8 µM (inactive)	34 µM (inactive)	81.8 µM (inactive)
Cc1cc(C)c2ccc(N3CCNCC3)nc2n1	> 100 µM (inactive)	> 100 µM (inactive)	> 100 µM (inactive)	> 100 µM (inactive)	> 100 µM (inactive)	> 100 µM (inactive)	> 100 µM (inactive)	> 100 µM (inactive)	–	> 100 µM (inactive)	> 100	> 100 µM (inactive)	> 100 µM (inactive)	> 100 µM (inactive)	> 100 µM (inactive)	> 100 µM (inactive)	> 100 µM (inactive)
COC(=O)[C@H](C)NC(=O)[C@H](NS(=O)(=O)c1nc2ccccc2s1)c1ccccc1	–	–	31 µM (inactive)	14.5 µM (inactive)	–	34.4 µM (inactive)	36.3 µM (inactive)	27.4 µM (inactive)	16.9 µM (inactive)	29.4 µM (inactive)	23.3	15.1 µM (inactive)	15.2 µM (inactive)	58.1 µM (inactive)	12.9 µM (inactive)	39.1 µM (inactive)	–
C=CCCCCCCCCC(=O)ON(Cc1ccc(O)c(OC)c1)C(=O)C(F)(F)F	> 100 µM (inactive)	> 100 µM (inactive)	> 100 µM (inactive)	21.4 µM (inactive)	–	10 µM (inactive)	> 100 µM (inactive)	> 100 µM (inactive)	> 100 µM (inactive)	> 100 µM (inactive)	> 100	> 100 µM (inactive)	> 100 µM (inactive)	> 100 µM (inactive)	> 100 µM (inactive)	> 100 µM (inactive)	–
Cc1cc(=O)[nH]c2cc(NC(=O)C(CCCNC(=N)N)NC(=O)OCc3ccccc3)ccc12 (stereo unspecified)	> 100 µM (inactive)	> 100 µM (inactive)	–	> 100 µM (inactive)	> 100 µM (inactive)	> 100 µM (inactive)	> 100 µM (inactive)	> 100 µM (inactive)	–	> 100 µM (inactive)	> 100	> 100 µM (inactive)	> 100 µM (inactive)	> 100 µM (inactive)	> 100 µM (inactive)	48.5 µM (inactive)	> 100 µM (inactive)
O=C1CC(C(O)C(O)C(O)CO)CC(=O)N1 (stereo unspecified)	> 100 µM (inactive)	> 100 µM (inactive)	> 100 µM (inactive)	> 100 µM (inactive)	> 100 µM (inactive)	> 100 µM (inactive)	> 100 µM (inactive)	> 100 µM (inactive)	> 100 µM (inactive)	> 100 µM (inactive)	> 100	> 100 µM (inactive)	–	> 100 µM (inactive)	> 100 µM (inactive)	> 100 µM (inactive)	> 100 µM (inactive)
Cc1cccc2c1C/C(=C\c1cccc(C)c1C(=O)O)C2=O	> 100 µM (inactive)	> 100 µM (inactive)	46.6 µM (inactive)	> 100 µM (inactive)	> 100 µM (inactive)	84.9 µM (inactive)	> 100 µM (inactive)	> 100 µM (inactive)	> 100 µM (inactive)	> 100 µM (inactive)	> 100	> 100 µM (inactive)	> 100 µM (inactive)	> 100 µM (inactive)	> 100 µM (inactive)	> 100 µM (inactive)	–
c1ccc(Cc2cc(-c3ccccc3)[nH]n2)cc1	20.6 µM (inactive)	11.1 µM (inactive)	–	12.5 µM (inactive)	16.7 µM (inactive)	10.9 µM (inactive)	–	23.2 µM (inactive)	10.3 µM (inactive)	24.8 µM (inactive)	18.5	22.3 µM (inactive)	11.5 µM (inactive)	17.4 µM (inactive)	13.3 µM (inactive)	0.568 µM (active)	–
CC(O)(/C=C/c1ccccc1)P(=O)(O)c1ccccc1 (stereo unspecified)	> 100 µM (inactive)	> 100 µM (inactive)	–	> 100 µM (inactive)	> 100 µM (inactive)	–	> 100 µM (inactive)	> 100 µM (inactive)	> 100 µM (inactive)	> 100 µM (inactive)	> 100	> 100 µM (inactive)	> 100 µM (inactive)	> 100 µM (inactive)	> 100 µM (inactive)	> 100 µM (inactive)	> 100 µM (inactive)
Cc1ccc(SCC(CF)OC(C)n2cnc3c(Cl)nc(N)nc32)cc1 (stereo unspecified)	> 100 µM (inactive)	44.7 µM (inactive)	> 100 µM (inactive)	> 100 µM (inactive)	18.7 µM (inactive)	81.1 µM (inactive)	57.4 µM (inactive)	> 100 µM (inactive)	–	> 100 µM (inactive)	> 100	96.8 µM (inactive)	> 100 µM (inactive)	> 100 µM (inactive)	19.3 µM (inactive)	67.9 µM (inactive)	89.1 µM (inactive)
COc1ccc(-c2nc3ncccn3c2-c2ccc([S+](C)[O-])cc2)cc1 (stereo unspecified)	> 100 µM (inactive)	> 100 µM (inactive)	> 100 µM (inactive)	–	–	> 100 µM (inactive)	> 100 µM (inactive)	> 100 µM (inactive)	–	> 100 µM (inactive)	> 100	89.5 µM (inactive)	> 100 µM (inactive)	–	> 100 µM (inactive)	> 100 µM (inactive)	36.9 µM (inactive)
Cc1cccc(C)c1N1C(=O)C2c3[nH]c4ccccc4c3C3CCC(C(C)(C)C)CC3C2C1=O (stereo unspecified)	24.6 µM (inactive)	12.3 µM (inactive)	19.3 µM (inactive)	18.4 µM (inactive)	–	12.6 µM (inactive)	14.8 µM (inactive)	62.4 µM (inactive)	8.97 µM (inactive)	2.43 µM (inactive)	11.4	14.4 µM (inactive)	8.45 µM (inactive)	17.6 µM (inactive)	16.5 µM (inactive)	17.3 µM (inactive)	11.5 µM (inactive)
